Values quoted from earlier work as cited in patent publication US20240082176A1 (Productos Farmaceuticos, S.A. DE C.V., priority 2017, published 2024).

Assays:
[1] = in vivo
[2] = test system: citric acid-induced cough
[3] = in vivo; remark: listed apart in the source

OCC(O)CN1CCN(c2ccccc2)CC1 (racemic) [dropropizine, (R, S)-3-(4-phenylpiperazin-1-yl) propane-1,2-diol]
elimination half-life [1]: 4 h
antitussive activity compared with codeine (cough; vs codeine): comparable
antitussive activity compared with its levo enantiomer (cough; vs levodropropizine): comparable
time after administration at which cough suppression is reached ([2]; after the administration of the drug): 1 h
period for which the antitussive effect persists ([2]; human, in vivo): 6 h

Nc1c(Br)cc(Br)cc1CN[C@H]1CC[C@H](O)CC1 [ambroxol, trans-4-[(2-amino-3,5-dibromophenyl)methylamino] cyclohexane-1-ol]
renal clearance as share of total clearance [3]: 8%
terminal elimination half-life [3]: 10 h

OC[C@@H](O)CN1CCN(c2ccccc2)CC1 [levodropropizine]
plasma protein binding (plasma protein): 11-14%
oral bioavailability (estimated): greater than 75%
half-life t1/2 (in vivo): 2 h
